Assays:
[1] = tested on: myocardial tissue of mice (myocardial fibrosis model); assay: Establishment of Dox mice myocardial fibrosis models, histological grading;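 further: mice given Dox by injection twice weekly, hearts fixed in paraformaldehyde and scored histologically, with sampling on days 35, 42 and 49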
Experimental: 100 female Kunming mice weighed 18-22 g were picked and divided into 5 groups: saline group, model group 1 (Dox 1 mg/kg), model group 2 (Dox 2 mg/kg), model group 3 (Dox 3 mg/kg) model group 4 (Dox 4 mg/kg), the number of mice in each group were 15, 15, 25, 30 and 15. Twice a week, every mouse was injected 2000 every time, in which 1 mg/kg Dox, 2 mg/kg Dox, 3 mg/kg Dox or 4 mg/kg Dox was dissolved.
The activities of the mice were closely watched and deaths of the mice were recorded every day at 5:00 pm and 9:00 am. Three days, the 35th the 42nd and the 49th day were chosen to take samples. After deaths, hearts of the mice were taken and rinsed with cold PBS and placed on a clean dry filter paper, then they were put into paraformaldehyde solution to be fixed. The models to assess myocardial fibrosis were established according to histological analysis, the changes in ventricular cavity of the mice, perivascular fibrosis, interstitial fibrosis, and vacuole formation and other changes were taken into consideration to determine whether the model was useable.

[2] = tested on: model rats with liver fibrosis; assay: Effects of rLZ-8 on serum ALT, AST and ALB of CCl4 model rats with liver fibrosis; type: in vivo; details: Group C: glycyrrhizin (Ganlixin) 12.5 mg/kg s.c. once a day
Experimental: (§1) Experiment grouping: model group, positive drug group and the treatment group were given subcutaneous injection of 50% volume fraction carbon tetrachloride olive oil solution, twice a week, starting 8:00 in the morning on Mondays and Thursdays, lasting for 8 weeks to replicate the cirrhosis model. For the first time the dose was 0.5 ml/100 g in accordance with weights of the mice, then 0.3 ml/100 g every four days in accordance with weights of the mice. They ate and drank water freely. At the same time on Mondays changes in rats' weights were monitored and the possibility of liver failure was preliminary estimated in order to reduce the mortality rated caused by replicating the cirrhosis model.
(§2) Treating process: In the control group (group A), the model group (group B), the positive drug group (glycyrrhizin group C), the low-dose treatment group (group D), the medium-dose treatment group (group E) and the high-dose treatment group (group F), 8 weeks after the cirrhosis models were built, the rats were anesthetized with ether, blood was drawn from retinal venous plexus to test serum liver biochemical indicators; the positive drug group were given subcutaneous injection of Ganlixin solution, the injection volume was 12.5 mg/kg. The process was performed once a day, lasting for 4 weeks; for the low, medium and high rLZ-8 dose groups, the concentration of subcutaneous injections were 15 μg/kg, 30 μg/kg and […] respectively; the injections were given once a day for 4 weeks; till the end of the 12th week, the mice were denied food but not water for 18 hours and anesthetized with ether. The eyeball blood of the rats was drawn, about […] samples of blood were centrifuged to get serum and then were put into a −20° C. deep freezer to be tested for serum biochemical indexes.
In the present experiment, the rats' liver fibrosis models were replicated by CCl4: olive oil (1:1) for 8 weeks. […] Compared with the control group, the difference was obvious and was statistically significant. The effect of medium dose rLZ-8 was the best.

[3] = tested on: model rats with liver fibrosis; assay: Effects of rLZ-8 on body mass, liver weight and liver indexes of CCl4 model rats with liver fibrosis; type: in vivo; details: 4 weeks
Experimental: as §1, §2

[4] = tested on: Dox-induced myocardial damage; assay: Treatment effect of rLZ-8 on Dox-induced myocardial damage in mice; type: in vivo; details: Group H: 10 mg/kg fosinopril sodium tablets, intragastric, every two days
Experimental: Experiment grouping: there were 8 experimental groups, 10 mice/per group, saline group (Group A), model group (Group B), rLZ-8 3 μg/kg (Group C), rLZ-8 6 μg/kg(Group D), rLZ-8 12 μg/kg (Group E), rLZ-8 24 μg/kg (Group F), rLZ-8 48 μg/kg (Group G) and positive control group (Group H).
Treating process: The model making process was the same as embodiment 3. The models for groups B, C, D, E, F, G and H were made with 3 mg/kg Dox, and then as control groups, Groups A and B were given intraperitoneal injection of saline once every day, and Groups C, D, E, G and H were treated with rLZ-8, intravenous injection once every 2 days. The mice were weighed every 3 days and drugs were delivered in accordance with weights. The dose for Group C was 3 μg/kg, Group D was 6 μg/kg, Group E was 12 μg/kg, Group F was 24 μg/kg, Group G was 48 μg/kg, and as the positive control group, every two days the mice in Group H were given 10 mg/kg fosinopril sodium tablets by way of intragastric administration.
Experiment records: The deaths of the mice were recorded at 9:00 and 17:00 every day and activities of the mice were closely watched. […] The myocardial tissues were made into paraffin sections and were treated with HE staining and trichrome staining to do histological examinations.
Experimental results: In order to examine myocardial fibrosis grades of the mice and myocardial fibrosis status, in the seventh week, samples were taken according to the mortality rates. […] Sample taking: the mice were killed with the right amount of anesthetic injections and hearts of the mice were isolated under sterile conditions and rinsed with cold PBS, and then blood was blotted up filter paper. The ventricles were selected and crosscut at a 1/2 section. The myocardial tissue was put into 4% paraformaldehyde solution to be fixed, then it was paraffin sectioned and HE stained. Three slices were cut from each tissue and stained under the same conditions. The myocardial tissue of the mice was Masson stained and was photographed under 20 times 40 times microscopes and statistics were recorded.

[5] = Dox accumulated dose 30, 10 mice
[6] = Dox accumulated dose 36, 10 mice
[7] = Dox accumulated dose 42 (3 mg/kg twice a week for 7 weeks), 9 mice
[8] = Group C: glycyrrhizin (Ganlixin solution) 12.5 mg/kg subcutaneous once a day

## COc1cccc2c1C(=O)c1c(O)c3c(c(O)c1C2=O)C[C@@](O)(C(=O)CO)C[C@@H]3O[C@H]1C[C@H](N)[C@H](O)[C@H](C)O1 [Doxorubicin]
[1]; [5]
  Interstitial Fibrosis grade 0, number of mice: 9
  Interstitial Fibrosis grade +++, number of mice: 0
  Interstitial Fibrosis grade ++, number of mice: 0
  Interstitial Fibrosis grade +, number of mice: 1
  Number of deaths: 0
  Perivascular Fibrosis grade 0, number of mice: 7
  Perivascular Fibrosis grade +++, number of mice: 0
  Perivascular Fibrosis grade ++, number of mice: 0
  Perivascular Fibrosis grade +, number of mice: 3
  Vacuolization grade 0, number of mice: 10
  Vacuolization grade +++, number of mice: 0
  Vacuolization grade ++, number of mice: 0
  Vacuolization grade +, number of mice: 0
[1]; [6]
  Interstitial Fibrosis grade 0, number of mice: 10
  Interstitial Fibrosis grade +++, number of mice: 0
  Interstitial Fibrosis grade ++, number of mice: 0
  Interstitial Fibrosis grade +, number of mice: 0
  Number of deaths: 0
  Perivascular Fibrosis grade 0, number of mice: 7
  Perivascular Fibrosis grade +++, number of mice: 0
  Perivascular Fibrosis grade ++, number of mice: 1
  Perivascular Fibrosis grade +, number of mice: 2
  Vacuolization grade 0, number of mice: 9
  Vacuolization grade +++, number of mice: 0
  Vacuolization grade ++, number of mice: 0
  Vacuolization grade +, number of mice: 1
[1]; [7]
  Interstitial Fibrosis grade 0, number of mice: 5
  Interstitial Fibrosis grade +++, number of mice: 1
  Interstitial Fibrosis grade ++, number of mice: 2
  Interstitial Fibrosis grade +, number of mice: 1
  Number of deaths: 0
  Perivascular Fibrosis grade 0, number of mice: 4
  Perivascular Fibrosis grade +++, number of mice: 1
  Perivascular Fibrosis grade ++, number of mice: 2
  Perivascular Fibrosis grade +, number of mice: 2
  Vacuolization grade 0, number of mice: 4
  Vacuolization grade +++, number of mice: 1
  Vacuolization grade ++, number of mice: 2
  Vacuolization grade +, number of mice: 2

## CC1(C)[C@@H](O[C@H]2O[C@H](C(=O)O)[C@@H](O)[C@H](O)[C@H]2O[C@@H]2O[C@H](C(=O)O)[C@@H](O)[C@H](O)[C@H]2O)CC[C@]2(C)[C@H]3C(=O)C=C4[C@@H]5C[C@@](C)(C(=O)O)CC[C@]5(C)CC[C@@]4(C)[C@]3(C)CC[C@@H]12 [glycyrrhizin]
[2]; Day 10
  serum ALB: 34.8 ± 0.2 g/L
  serum ALT: 143.3 ± 0.9 U/L
  serum AST: 176.2 ± 6.1 U/L
[2]; Day 20
  serum ALB: 30.0 ± 0.2 g/L
  serum ALT: 126.2 ± 1.3 U/L
  serum AST: 205.8 ± 4.2 U/L
[2]; Day 30
  serum ALB: 32.5 ± 0.1 g/L
  serum ALT: 49.5 ± 0.6 U/L
  serum AST: 59.0 ± 1.9 U/L
[3]; Group C: glycyrrhizin (Ganlixin solution) 12.5 mg/kg s.c. once a day, weight after modelling
  Model weight: 303.5 ± 39.2 g
[3]; [8]
  Final weights: 397.1 ± 46.4 g
  Liver indexes: 3.1 ± 0.4%
  Liver weights: 12.43 ± 2.25 g

## CCC(=O)O[C@@H](O[P@](=O)(CCCCc1ccccc1)CC(=O)N1C[C@H](C2CCCCC2)C[C@H]1C(=O)O)C(C)C [fosinopril sodium]
[4]
  Deaths: 0
  Number of Mice (sampled in week 7 according to mortality, 10 mice per group at start): 7
[4]; week 7
  Interstitial Fibrosis grade 0, number of mice: 6
  Interstitial Fibrosis grade +++, number of mice: 0
  Interstitial Fibrosis grade ++, number of mice: 0
  Interstitial Fibrosis grade +, number of mice: 1
  Perivascular Fibrosis grade 0, number of mice: 5
  Perivascular Fibrosis grade +++, number of mice: 0
  Perivascular Fibrosis grade ++, number of mice: 1
  Perivascular Fibrosis grade +, number of mice: 1
  Vacuolization grade 0, number of mice: 6
  Vacuolization grade +++, number of mice: 0
  Vacuolization grade ++, number of mice: 1
  Vacuolization grade +, number of mice: 0

Source: patent publication US20160303189A1, “Applications of Recombined Ganoderma Lucidum Immunoregulation Protein in Preparing Drugs for Treating Tissue Fibrosis” (priority 2014, published 2016)
